# Target: T1, BTK (Homo sapiens, UniProt Q06187)
# T1 construct: endogenous in cells; host or cells: Ramos cells
# Assay: BTK cell degradation in Ramos cells (total BTK ELISA)
# Format: cell-based
# Details: 16 h incubation, FastScan total BTK ELISA
# Description: Ramos cells are treated with compounds diluted in 0.1% DMSO, dilution is done according to the following protocol: (1) make 1000x stock solution in DMSO from 10 mM by 5-fold dilution, total 7 doses were included; (2) make 10x solution in cell culture medium by transferring 1 ul 1000x stock solution into 99 ul medium; (3) 11 ul of 10× solution is added to cells and incubate for 16 h.
# Cells in 96 well plate are harvested by centrifugation (1200 rpm), and wash once with ice-cold PBS. Then, 100 ul 1×cell extraction buffer is added in each well. The cells are placed on a shaker for 20 min at 4° C.; 5 ul lysate is transferred to 45 ul of 1×cell extraction buffer in ELISA plate, and 50 ul of the antibody cocktail is added in each well; seal the plate and incubate 1 hour at room temperature on a plate shaker; medium is discarded from the plate, tap the plated on a paper towel, wash 3×200 ul ELISA wash buffer; add 100 ul of TMB to each well and incubate the plate in the dark for 15 min at room temperature on a shaker; add 100 ul of STOP solution to each well; read absorbance at 450 nm. The BTK ELISA assay was performed using FastScan total BTK ELISA kit (Cell Signaling Cat #36609).
# T1 sequence (Q06187 whole entry): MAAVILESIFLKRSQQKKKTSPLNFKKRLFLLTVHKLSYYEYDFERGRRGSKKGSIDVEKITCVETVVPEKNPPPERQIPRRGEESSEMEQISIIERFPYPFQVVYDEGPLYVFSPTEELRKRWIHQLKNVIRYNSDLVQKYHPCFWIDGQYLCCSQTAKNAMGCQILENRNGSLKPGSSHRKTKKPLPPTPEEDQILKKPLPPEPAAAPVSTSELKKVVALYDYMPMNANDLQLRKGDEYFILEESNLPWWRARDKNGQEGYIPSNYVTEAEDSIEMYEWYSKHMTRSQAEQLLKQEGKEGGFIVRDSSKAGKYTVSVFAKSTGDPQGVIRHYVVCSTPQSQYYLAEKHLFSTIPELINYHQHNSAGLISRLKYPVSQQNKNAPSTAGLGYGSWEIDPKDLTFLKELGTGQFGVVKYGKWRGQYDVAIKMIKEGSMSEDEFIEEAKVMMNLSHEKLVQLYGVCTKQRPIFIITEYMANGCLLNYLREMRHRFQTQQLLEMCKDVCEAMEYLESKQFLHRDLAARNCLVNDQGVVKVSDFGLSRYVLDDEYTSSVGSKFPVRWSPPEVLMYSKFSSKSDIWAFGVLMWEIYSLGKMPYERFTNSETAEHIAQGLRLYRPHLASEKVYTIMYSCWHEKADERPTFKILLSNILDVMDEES
row,SMILES,DC50
1,"NC(=O)c1c(-c2ccc(Oc3ccccc3)cc2)nn2c1NCCC2C1CCN(C(=O)CC2CCC(N3CCN(c4ccc5c(c4)C(=O)N(C4CCC(=O)NC4=O)C5=O)CC3)CC2)CC1 (stereo in doubt) [Example 147, (7R)-7-(1-(2-(4-(4-(2-(2,6-dioxopiperidin-3-yl)-1,3-dioxoisoindolin-5-yl)piperazin-1-yl)cyclohexyl)acetyl)piperidin-4-yl)-2-(4-phenoxyphenyl)-4,5,6,7-tetrahydropyrazolo[1,5-a]pyrimidine-3-carboxamide]",244 nM
2,"NC(=O)c1c(-c2ccc(Oc3ccccc3)cc2)nn2c1NCC[C@H]2C1CCN(C(=O)c2cn(CCOCCCc3cccc4c3CN(C3CCC(=O)NC3=O)C4=O)nn2)CC1 (stereo partly drawn) [Example 1, (7S)-7-(1-(1-(2-(3-(2-(2,6-dioxopiperidin-3-yl)-1-oxoisoindolin-4-yl)propoxy)ethyl)-1H-1,2,3-triazole-4-carbonyl)piperidin-4-yl)-2-(4-phenoxyphenyl)-4,5,6,7-tetrahydropyrazolo[1,5-a]pyrimidine-3-carboxamide]",> 10000 nM
3,"NC(=O)c1c(-c2ccc(Oc3ccccc3)cc2)nn2c1NCC[C@H]2C1CCN(C(=O)c2cn(CCOCCNc3cccc4c3C(=O)N(C3CCC(=O)NC3=O)C4=O)nn2)CC1 (stereo partly drawn) [Example 2, (7S)-7-(1-(1-(2-(2-((2-(2,6-dioxopiperidin-3-yl)-1,3-dioxoisoindolin-4-yl)amino)ethoxy)ethyl)-1H-1,2,3-triazole-4-carbonyl)piperidin-4-yl)-2-(4-phenoxyphenyl)-4,5,6,7-tetrahydropyrazolo[1,5-a]pyrimidine-3-carboxamide]",> 10000 nM
4,"NC(=O)c1c(-c2ccc(Oc3ccccc3)cc2)nn2c1NCC[C@H]2C1CCN(C(=O)c2cn(CCOCCOCCNc3cccc4c3C(=O)N(C3CCC(=O)NC3=O)C4=O)nn2)CC1 (stereo partly drawn) [Example 3, (7S)-7-(1-(1-(2-(2-(2-((2-(2,6-dioxopiperidin-3-yl)-1,3-dioxoisoindolin-4-yl)amino)ethoxy)ethoxy)ethyl)-1H-1,2,3-triazole-4-carbonyl)piperidin-4-yl)-2-(4-phenoxyphenyl)-4,5,6,7-tetrahydropyrazolo[1,5-a]pyrimidine-3-carboxamide]",> 10000 nM
5,"NC(=O)c1c(-c2ccc(Oc3ccccc3)cc2)nn2c1NCC[C@H]2C1CCN(C(=O)c2cn(CCOCCOCC#Cc3cccc4c3CN(C3CCC(=O)NC3=O)C4=O)nn2)CC1 (stereo partly drawn) [Example 4, (7S)-7-(1-(1-(2-(2-((3-(2-(2,6-dioxopiperidin-3-yl)-1-oxoisoindolin-4-yl)prop-2-yn-1-yl)oxy)ethoxy)ethyl)-1H-1,2,3-triazole-4-carbonyl)piperidin-4-yl)-2-(4-phenoxyphenyl)-4,5,6,7-tetrahydropyrazolo[1,5-a]pyrimidine-3-carboxamide]",> 10000 nM
6,"NC(=O)c1c(-c2ccc(Oc3ccccc3)cc2)nn2c1NCC[C@H]2C1CCN(C(=O)c2cn(CCOCCOCCCc3cccc4c3CN(C3CCC(=O)NC3=O)C4=O)nn2)CC1 (stereo partly drawn) [Example 5, (7S)-7-(1-(1-(2-(2-(3-(2-(2,6-dioxopiperidin-3-yl)-1-oxoisoindolin-4-yl)propoxy)ethoxy)ethyl)-1H-1,2,3-triazole-4-carbonyl)piperidin-4-yl)-2-(4-phenoxyphenyl)-4,5,6,7-tetrahydropyrazolo[1,5-a]pyrimidine-3-carboxamide]",> 10000 nM
7,"NC(=O)c1c(-c2ccc(Oc3ccccc3)cc2)nn2c1NCC[C@H]2C1CCN(C(=O)c2cn(CCOCCOCCOCCCc3cccc4c3CN(C3CCC(=O)NC3=O)C4=O)nn2)CC1 (stereo partly drawn) [Example 6, (7S)-7-(1-(1-(2-(2-(2-(3-(2-(2,6-dioxopiperidin-3-yl)-1-oxoisoindolin-4-yl)propoxy)ethoxy)ethoxy)ethyl)-1H-1,2,3-triazole-4-carbonyl)piperidin-4-yl)-2-(4-phenoxyphenyl)-4,5,6,7-tetrahydropyrazolo[1,5-a]pyrimidine-3-carboxamide]",242 nM
8,"NC(=O)c1c(-c2ccc(Oc3ccccc3)cc2)nn2c1NCC[C@H]2C1CCN(C(=O)c2cn(CCOCCOCCNc3ccc4c(c3)C(=O)N(C3CCC(=O)NC3=O)C4=O)nn2)CC1 (stereo partly drawn) [Example 7, (7S)-7-(1-(1-(2-(2-(2-((2-(2,6-dioxopiperidin-3-yl)-1,3-dioxoisoindolin-5-yl)amino)ethoxy)ethoxy)ethyl)-1H-1,2,3-triazole-4-carbonyl)piperidin-4-yl)-2-(4-phenoxyphenyl)-4,5,6,7-tetrahydropyrazolo[1,5-a]pyrimidine-3-carboxamide]",> 10000 nM
9,"NC(=O)c1c(-c2ccc(Oc3ccccc3)cc2)nn2c1NCC[C@H]2C1CCN(C(=O)c2cn(CCOCCOCCOCCNc3cccc4c3C(=O)N(C3CCC(=O)NC3=O)C4=O)nn2)CC1 (stereo partly drawn) [Example 8, (7S)-7-(1-(1-(2-(2-(2-(2-((2-(2,6-dioxopiperidin-3-yl)-1,3-dioxoisoindolin-4-yl)amino)ethoxy)ethoxy)ethoxy)ethyl)-1H-1,2,3-triazole-4-carbonyl)piperidin-4-yl)-2-(4-phenoxyphenyl)-4,5,6,7-tetrahydropyrazolo[1,5-a]pyrimidine-3-carboxamide]",128 nM
10,"NC(=O)c1c(-c2ccc(Oc3ccccc3)cc2)nn2c1NCC[C@H]2C1CCN(C(=O)c2cn(CCOCCOCCOCC#Cc3cccc4c3CN(C3CCC(=O)NC3=O)C4=O)nn2)CC1 (stereo partly drawn) [Example 9, (7S)-7-(1-(1-(2-(2-(2-((3-(2-(2,6-dioxopiperidin-3-yl)-1-oxoisoindolin-4-yl)prop-2-yn-1-yl)oxy)ethoxy)ethoxy)ethyl)-1H-1,2,3-triazole-4-carbonyl)piperidin-4-yl)-2-(4-phenoxyphenyl)-4,5,6,7-tetrahydropyrazolo[1,5-a]pyrimidine-3-carboxamide]",> 10000 nM
11,"NC(=O)c1c(-c2ccc(Oc3ccccc3)cc2)nn2c1NCC[C@H]2C1CCN(C(=O)c2cn(CCOCCOCCOCCOCCCc3cccc4c3CN(C3CCC(=O)NC3=O)C4=O)nn2)CC1 (stereo partly drawn) [Example 10, (7S)-7-(1-(1-(15-(2-(2,6-dioxopiperidin-3-yl)-1-oxoisoindolin-4-yl)-3,6,9, 12-tetraoxapentadecyl)-1H-1,2,3-triazole-4-carbonyl)piperidin-4-yl)-2-(4-phenoxyphenyl)-4,5,6,7-tetrahydropyrazolo[1,5-a]pyrimidine-3-carboxamide]",> 10000 nM
12,"NC(=O)c1c(-c2ccc(Oc3ccccc3)cc2)nn2c1NCC[C@H]2C1CCN(C(=O)c2cn(CCOCCOCCOCCOCC#Cc3cccc4c3CN(C3CCC(=O)NC3=O)C4=O)nn2)CC1 (stereo partly drawn) [Example 11, (7S)-7-(1-(1-(15-(2-(2,6-dioxopiperidin-3-yl)-1-oxoisoindolin-4-yl)-3,6,9, 12-tetraoxapentadec-14-yn-1-yl)-1H-1,2,3-triazole-4-carbonyl)piperidin-4-yl)-2-(4-phenoxyphenyl)-4,5,6,7-tetrahydropyrazolo[1,5-a]pyrimidine-3-carboxamide]",176 nM
13,"NC(=O)c1c(-c2ccc(Oc3ccccc3)cc2)nn2c1NCC[C@H]2C1CCN(C(=O)c2cn(CCOCCOCCOCCOCCNc3ccc4c(c3)C(=O)N(C3CCC(=O)NC3=O)C4=O)nn2)CC1 (stereo partly drawn) [Example 12, (7S)-7-(1-(1-(14-((2-(2,6-dioxopiperidin-3-yl)-1,3-dioxoisoindolin-5-yl)amino)-3,6,9, 12-tetraoxatetradecyl)-1H-1,2,3-triazole-4-carbonyl)piperidin-4-yl)-2-(4-phenoxyphenyl)-4,5,6,7-tetrahydropyrazolo[1,5-a]pyrimidine-3-carboxamide]",> 10000 nM
14,"NC(=O)c1c(-c2ccc(Oc3ccccc3)cc2)nn2c1NCC[C@H]2C1CCN(C(=O)c2cn(CCOCCOCCOCCOCCOCCNc3ccc4c(c3)C(=O)N(C3CCC(=O)NC3=O)C4=O)nn2)CC1 (stereo partly drawn) [Example 14, (7S)-7-(1-(1-(17-((2-(2,6-dioxopiperidin-3-yl)-1,3-dioxoisoindolin-5-yl)amino)-3,6,9, 12, 15-pentaoxaheptadecyl)-1H-1,2,3-triazole-4-carbonyl)piperidin-4-yl)-2-(4-phenoxyphenyl)-4,5,6,7-tetrahydropyrazolo[1,5-a]pyrimidine-3-carboxamide]",78 nM
15,"NC(=O)c1c(-c2ccc(Oc3ccccc3)cc2)nn2c1NCC[C@H]2C1CCN(C(=O)c2cn(CCOCCOCCOCCOCCOCCNc3cccc4c3C(=O)N(C3CCC(=O)NC3=O)C4=O)nn2)CC1 (stereo partly drawn) [Example 15, (7S)-7-(1-(1-(17-((2-(2,6-dioxopiperidin-3-yl)-1,3-dioxoisoindolin-4-yl)amino)-3,6,9, 12, 15-pentaoxaheptadecyl)-1H-1,2,3-triazole-4-carbonyl)piperidin-4-yl)-2-(4-phenoxyphenyl)-4,5,6,7-tetrahydropyrazolo[1,5-a]pyrimidine-3-carboxamide]",78 nM
16,"NC(=O)c1c(-c2ccc(Oc3ccccc3)cc2)nn2c1NCC[C@H]2C1CCN(C(=O)c2cn(CCOCCOCCOCCOCCOCCOCCNc3cccc4c3C(=O)N(C3CCC(=O)NC3=O)C4=O)nn2)CC1 (stereo partly drawn) [Example 16, (7S)-7-(1-(1-(20-((2-(2,6-dioxopiperidin-3-yl)-1,3-dioxoisoindolin-4-yl)amino)-3,6,9, 12, 15, 18-hexaoxaicosyl)-1H-1,2,3-triazole-4-carbonyl)piperidin-4-yl)-2-(4-phenoxyphenyl)-4,5,6,7-tetrahydropyrazolo[1,5-a]pyrimidine-3-carboxamide]",107 nM

# Source: patent publication US20220281876A1, “DEGRADATION OF BRUTON'S TYROSINE KINASE (BTK) BY CONJUGATION OF BTK INHIBITORS WITH E3 LIGASE LIGAND AND METHODS OF USE” (BEIGENE, LTD., priority 2019, published 2022)
